Measured values as given in PubChem BioAssay (NCI).
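Five compound concentrations were applied to cells in 96-well plates for 48 hours; endpoints were derived by simple linear interpolation of the resulting dose-response curve. GI50 marks 50% less growth. TGI denotes the concentration required for complete inhibition of growth.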

Key:
Assay in all cases: inhibition of tumour cell growth, NCI panel, 48 h
KM12 colon = test system: KM12 colon
OVCAR-3 ovarian = test system: OVCAR-3 ovarian
SK-MEL-5 melanoma = test system: SK-MEL-5 melanoma
HL-60(TB) leukemia = test system: HL-60(TB) leukemia
SNB-19 CNS = test system: SNB-19 CNS
LOX IMVI melanoma = test system: LOX IMVI melanoma
NCI-H23 lung = test system: NCI-H23 lung
SK-MEL-2 melanoma = test system: SK-MEL-2 melanoma
HT29 colon = test system: HT29 colon
786-0 renal = test system: 786-0 renal
OVCAR-4 ovarian = test system: OVCAR-4 ovarian
NCI-H522 lung = test system: NCI-H522 lung
U251 CNS = test system: U251 CNS
MALME-3M melanoma = test system: MALME-3M melanoma
UACC-62 melanoma = test system: UACC-62 melanoma
COLO 205 colon = test system: COLO 205 colon
NCI-H460 lung = test system: NCI-H460 lung
SR leukemia = test system: SR leukemia
A498 renal = test system: A498 renal
HS 578T breast = test system: HS 578T breast
SNB-75 CNS = test system: SNB-75 CNS
NCI/ADR-RES ovarian = test system: NCI/ADR-RES ovarian
MDA-MB-231 breast = test system: MDA-MB-231 breast
NCI-H226 lung = test system: NCI-H226 lung
SF-295 CNS = test system: SF-295 CNS
RPMI-8226 leukemia = test system: RPMI-8226 leukemia
T-47D breast = test system: T-47D breast
TK-10 renal = test system: TK-10 renal
HCT-15 colon = test system: HCT-15 colon
RXF 393 renal = test system: RXF 393 renal
DU-145 prostate = test system: DU-145 prostate
SW-620 colon = test system: SW-620 colon
M14 melanoma = test system: M14 melanoma
MDA-MB-435 = test system: MDA-MB-435
HCC-2998 colon = test system: HCC-2998 colon
EKVX NSCLC = test system: EKVX NSCLC
OVCAR-8 ovarian = test system: OVCAR-8 ovarian
SN12C renal = test system: SN12C renal
HCT-116 colon = test system: HCT-116 colon
SF-268 CNS = test system: SF-268 CNS
HOP-92 NSCLC = test system: HOP-92 NSCLC
IGROV1 ovarian = test system: IGROV1 ovarian
SK-OV-3 ovarian = test system: SK-OV-3 ovarian
PC-3 prostate = test system: PC-3 prostate
MCF7 breast = test system: MCF7 breast
BT-549 breast = test system: BT-549 breast
K-562 leukemia = test system: K-562 leukemia
SF-539 CNS = test system: SF-539 CNS
A549 NSCLC = test system: A549 NSCLC
SK-MEL-28 melanoma = test system: SK-MEL-28 melanoma
MOLT-4 leukemia = test system: MOLT-4 leukemia
HOP-62 NSCLC = test system: HOP-62 NSCLC
CCRF-CEM leukemia = test system: CCRF-CEM leukemia

`C=CCn1c(SCC(=O)Nc2ccc(C(=O)/C=C/c3cc(OC)c(OC)c(OC)c3)cc2)nnc1-c1ccc(OC)cc1` was tested, and the GI50 (KM12 colon) was 0.315 µM, the TGI (KM12 colon) was 1.5 µM and the GI50 (OVCAR-3 ovarian) was 0.343 µM. It also gave a TGI (OVCAR-3 ovarian) of 1.02 µM, a GI50 (SK-MEL-5 melanoma) of 0.79 µM and a TGI (SK-MEL-5 melanoma) of 2.27 µM. The GI50 (HL-60(TB) leukemia) was 0.473 µM, the GI50 (SNB-19 CNS) was 0.59 µM and the TGI (SNB-19 CNS) was 11.8 µM. It also gave a GI50 (LOX IMVI melanoma) of 0.28 µM, a TGI (LOX IMVI melanoma) of 1.03 µM and a GI50 (NCI-H23 lung) of 0.67 µM. The TGI (NCI-H23 lung) was 2.66 µM, the GI50 (SK-MEL-2 melanoma) was 2.1 µM and the TGI (SK-MEL-2 melanoma) was 15.4 µM. For the same compound, the GI50 (HT29 colon) was 0.237 µM, the TGI (HT29 colon) was 0.532 µM and the GI50 (786-0 renal) was 0.583 µM. It also gave a TGI (786-0 renal) of 2.61 µM, a GI50 (OVCAR-4 ovarian) of 0.783 µM and a TGI (OVCAR-4 ovarian) of 10.5 µM. For the same compound, the GI50 (NCI-H522 lung) was 0.689 µM, the TGI (NCI-H522 lung) was 3.37 µM and the GI50 (U251 CNS) was 0.289 µM. The TGI (U251 CNS) was 0.939 µM, the GI50 (MALME-3M melanoma) was 1.89 µM and the TGI (MALME-3M melanoma) was 36.8 µM. It also gave a GI50 (UACC-62 melanoma) of 0.865 µM, a TGI (UACC-62 melanoma) of 3.78 µM and a GI50 (COLO 205 colon) of 0.399 µM. For the same compound, the TGI (COLO 205 colon) was 3.83 µM, the GI50 (NCI-H460 lung) was 0.698 µM and the TGI (NCI-H460 lung) was 2.59 µM. For the same compound, the GI50 (SR leukemia) was 0.255 µM, the TGI (SR leukemia) was over 46.1 µM and the GI50 (A498 renal) was 1.5 µM. For the same compound, the TGI (A498 renal) was 2.91 µM, the GI50 (HS 578T breast) was 2.12 µM and the TGI (HS 578T breast) was 56.7 µM. It also gave a GI50 (SNB-75 CNS) of 0.311 µM, a TGI (SNB-75 CNS) of 9.19 µM and a GI50 (NCI/ADR-RES ovarian) of 1.45 µM. It also gave a TGI (NCI/ADR-RES ovarian) of 17.6 µM, a GI50 (MDA-MB-231 breast) of 0.888 µM and a TGI (MDA-MB-231 breast) of 29.9 µM. For the same compound, the GI50 (NCI-H226 lung) was 0.445 µM, the TGI (NCI-H226 lung) was 1.55 µM and the GI50 (SF-295 CNS) was 0.9 µM. The TGI (SF-295 CNS) was 4.88 µM, the GI50 (RPMI-8226 leukemia) was 0.202 µM and the TGI (RPMI-8226 leukemia) was 0.68 µM. For the same compound, the GI50 (T-47D breast) was 0.455 µM, the TGI (T-47D breast) was 5.73 µM and the GI50 (TK-10 renal) was 1.6 µM. The TGI (TK-10 renal) was 6.18 µM, the GI50 (HCT-15 colon) was 0.277 µM and the TGI (HCT-15 colon) was 1.26 µM. It also gave a GI50 (RXF 393 renal) of 0.377 µM, a TGI (RXF 393 renal) of 1.41 µM and a GI50 (DU-145 prostate) of 0.453 µM. It also gave a TGI (DU-145 prostate) of 16 µM, a GI50 (SW-620 colon) of 0.397 µM and a TGI (SW-620 colon) of over 47.4 µM. For the same compound, the GI50 (M14 melanoma) was 0.404 µM, the TGI (M14 melanoma) was 2.58 µM and the GI50 (MDA-MB-435) was 0.327 µM. It also gave a TGI (MDA-MB-435) of 1.6 µM, a GI50 (HCC-2998 colon) of 0.175 µM and a TGI (HCC-2998 colon) of 0.379 µM. The GI50 (EKVX NSCLC) was 1.33 µM, the TGI (EKVX NSCLC) was 64 µM and the GI50 (OVCAR-8 ovarian) was 0.755 µM. The TGI (OVCAR-8 ovarian) was 10 µM, the GI50 (SN12C renal) was 0.839 µM and the TGI (SN12C renal) was 19.1 µM. It also gave a GI50 (HCT-116 colon) of 0.223 µM, a TGI (HCT-116 colon) of 0.52 µM and a GI50 (SF-268 CNS) of 0.399 µM. For the same compound, the TGI (SF-268 CNS) was 11.2 µM, the GI50 (HOP-92 NSCLC) was 2.25 µM and the TGI (HOP-92 NSCLC) was 16.4 µM. It also gave a GI50 (IGROV1 ovarian) of 0.324 µM, a TGI (IGROV1 ovarian) of 1.9 µM and a GI50 (SK-OV-3 ovarian) of 1.21 µM. For the same compound, the TGI (SK-OV-3 ovarian) was 9.96 µM, the GI50 (PC-3 prostate) was 0.642 µM and the TGI (PC-3 prostate) was over 100 µM. It also gave a GI50 (MCF7 breast) of 0.246 µM, a TGI (MCF7 breast) of 3.14 µM and a GI50 (BT-549 breast) of 0.209 µM. It also gave a TGI (BT-549 breast) of 0.546 µM, a GI50 (K-562 leukemia) of 0.363 µM and a TGI (K-562 leukemia) of over 100 µM. For the same compound, the GI50 (SF-539 CNS) was 0.248 µM, the TGI (SF-539 CNS) was 0.666 µM and the GI50 (A549 NSCLC) was 0.875 µM. It also gave a TGI (A549 NSCLC) of 4.83 µM, a GI50 (SK-MEL-28 melanoma) of 0.709 µM and a TGI (SK-MEL-28 melanoma) of 73.8 µM. For the same compound, the GI50 (MOLT-4 leukemia) was 0.378 µM, the TGI (MOLT-4 leukemia) was over 100 µM and the GI50 (HOP-62 NSCLC) was 0.691 µM. It also gave a TGI (HOP-62 NSCLC) of 1.75 µM, a GI50 (CCRF-CEM leukemia) of 0.344 µM and a TGI (CCRF-CEM leukemia) of over 100 µM.
